Literature values, collected in US12150952B2, “Formulation for the use in the simultaneous treatment of coccidial infections and iron deficiencies” (Elanco Animal Health GmbH, priority 2018, dated 2024).
Like-named read-outs stand apart in the source and are kept apart here.

Tests used:
[1] = value to be understood as stated ±1
Isospora suis = settings: coccidiosis

Compound | HLB [1] | preventing the disease in experimentally infected piglets (Isospora suis) | HLB ([1]; listed as Sodium Docusate)
Sorbitan Monooleate | about 4.6 | – | –
CCCc1ncc(C[n+]2ccccc2C)c(N)n1 [amprolium] | – | not been successful in preventing the disease | –
CC[C@@]1([C@@H]2O[C@@H]([C@H]3O[C@@](O)(CO)[C@H](C)C[C@@H]3C)C[C@@H]2C)CC[C@H]([C@]2(C)CC[C@]3(C[C@H](O)[C@@H](C)[C@@H]([C@@H](C)[C@@H](OC)[C@H](C)C(=O)O)O3)O2)O1 [monensin] | – | not been successful in preventing the disease | –
CCCCC(CC)COC(=O)CC(C(=O)OCC(CC)CCCC)S(=O)(=O)[O-].[Na+] (stereo not drawn) [Sodium docusate] | about 10 | – | 10
O=C1OCCN1/N=C/c1ccc([N+](=O)[O-])o1 [furazolidon] | – | not been successful in preventing the disease | –
